The numbers were not newly measured in patent US20120269871A1, “SOLID STATE FORMS OF RASAGILINE SALTS” (ACTAVIS GROUP PTC EHF, priority 2009, published 2012), which cites them from elsewhere.

Take `C#CCN[C@@H]1CCc2ccccc21.CS(=O)(=O)O` [Rasagiline mesylate]: the solubility in ethanol result (solvent: ethanol) is “freely soluble”. In addition, the solubility in isopropanol entry (solvent: isopropanol) was “sparingly soluble”. Moreover, the solubility in water result (solvent: water) is “freely soluble”.
